Measurements published in patent publication US8822486B2, “Spiropiperidine compounds” (Eli Lilly and Company, priority 2009, dated 2014).

Tests used:
PPARγ = target: T1, PPARγ (Homo sapiens, UniProt P37231); assay: PPARγ binding assay (SPA); design: made in house; host or cells: HEK293 (cell lysates); conditions: concentrations up to 10 μM
T1 sequence (P37231 1-505): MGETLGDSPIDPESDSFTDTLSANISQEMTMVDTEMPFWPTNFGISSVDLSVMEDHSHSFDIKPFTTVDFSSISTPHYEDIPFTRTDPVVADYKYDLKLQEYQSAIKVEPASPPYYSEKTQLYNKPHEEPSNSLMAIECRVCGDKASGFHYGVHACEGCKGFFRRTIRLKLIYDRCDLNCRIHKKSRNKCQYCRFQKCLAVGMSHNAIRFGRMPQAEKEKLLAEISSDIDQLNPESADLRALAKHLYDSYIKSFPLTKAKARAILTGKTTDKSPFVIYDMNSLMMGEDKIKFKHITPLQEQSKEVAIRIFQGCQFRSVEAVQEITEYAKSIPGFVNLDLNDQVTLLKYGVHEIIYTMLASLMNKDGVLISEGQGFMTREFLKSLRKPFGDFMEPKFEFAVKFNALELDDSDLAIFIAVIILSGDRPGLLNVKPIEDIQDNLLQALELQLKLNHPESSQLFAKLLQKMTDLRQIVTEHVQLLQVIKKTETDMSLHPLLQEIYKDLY
T1 sequence (P19793 1-462 partner): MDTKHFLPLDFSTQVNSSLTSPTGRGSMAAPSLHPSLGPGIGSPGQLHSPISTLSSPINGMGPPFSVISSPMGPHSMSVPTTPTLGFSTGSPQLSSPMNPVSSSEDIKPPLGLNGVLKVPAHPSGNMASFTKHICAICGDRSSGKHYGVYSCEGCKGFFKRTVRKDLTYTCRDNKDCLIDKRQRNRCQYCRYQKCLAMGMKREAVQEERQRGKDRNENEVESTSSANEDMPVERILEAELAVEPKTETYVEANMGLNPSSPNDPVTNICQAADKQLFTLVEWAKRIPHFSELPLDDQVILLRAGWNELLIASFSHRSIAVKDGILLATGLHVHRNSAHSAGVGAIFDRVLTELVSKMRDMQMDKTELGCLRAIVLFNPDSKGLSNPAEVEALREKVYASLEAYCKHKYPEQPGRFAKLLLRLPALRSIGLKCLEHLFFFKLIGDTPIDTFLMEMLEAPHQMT
Experimental: Because GPR40 is known to be activated by ligands to PPARγ exemplified compounds are examined in PPARα, PPARδ, and PPARγ binding and functional assays to determine the selectivity of exemplified compounds for GPR40. Compounds exemplified herein are tested essentially as described below for PPAR binding and generally have binding values greater than 1000 nM with 10 μM concentrations of test compound and are thus considered negative for PPAR activity.
Binding affinities of compounds for the PPAR α, δ, and γ receptors are assessed using Scintillation Proximity Assay (SPA) technology. Biotinylated oligonucleotide Direct Repeat 2 (DR2) is used for binding the receptors to Yttrium silicate streptavidin-coated SPA beads. […] Non-specific binding is determined in the presence of 10,000 nM of the unlabeled PPAR α/δ dual agonist reference compound for the alpha and delta receptor assays and the PPARγ agonist reference compound for the gamma receptor assay. The binding reaction (100 μl per well in a 96 well [Costar 3632] plate) is incubated for 10 h and counted disintegration per minutes (dpm) on a Wallac Microbeta. Receptor binding affinity (IC50) for the compounds is determined by fitting an 11 point concentration-response curve with a 4-paramater logistic equation. K, is determined from the IC50 using the Cheng-Prussoff equation and Kd determined by saturation binding. […]

Male Balb/c mice = assay: Intraperitoneal Glucose Tolerance Test (IPGTT); assay type: in vivo, mouse; conditions: oral
Experimental: To examine the ability of exemplified compounds to activate GPR40 in-vivo resulting in anti-diabetic efficacy, i.e. an increase in insulin and reduction in glucose levels, a 4-day intraperitoneal glucose tolerance test (ipGTT) study is completed with each compound tested in the IPGTT.
Male Balb/c (Albino mice) mice (8-9 weeks of age) are single housed and fed with normal rodent chow diet and water ad libitum. Animals are weighed and randomized by body weight and daily body weights are recorded. Upon study initiation, animals are dosed once per day orally for three days using a formulation carrying methylcellulose and tween-80. On the night before the 4-day IPGTT study, animals are fasted overnight in clean cages. On the morning of the IPGTT (Day 4), animals are dosed orally with compound or vehicle alone 60 minutes prior to the IPGTT (glucose 2 g/kg, i.p.). Blood glucose levels are determined from tail bleeds taken at 0, 3, 7, 15, 30, and 60 min after glucose challenge. Plasma is isolated and used to estimate respective insulin levels. The blood glucose excursion profile from t=0 to t=60 min is used to integrate an area under the curve (AUC) for each treatment. Percent lowering in glucose is calculated from the AUC data of the compounds with respect to the AUC of vehicle group. The test compound is orally administered at 0.1, 0.3, 1.0, 3.0, or 10 mg/kg, and a positive control is administered at 10 mg/kg.

[1] = Example 1 at 0.1, 0.3, 1.0 and 3.0 mg/kg, positive control 10 mg/kg

Compound: CC#C[C@@H](CC(=O)O)c1ccc(OCc2ccc(CN3CCC4(C=Cc5ccccc54)CC3)s2)cc1 [Example 1, (3S)-3-[4-[[5-(Spiro[indene-1,4′-piperidine]-1′-ylmethyl)-2-thienyl]methoxy]phenyl]hex-4-ynoic acid]
- PPARγ binding (PPARγ): no binding is detected
- ED50 (Male Balb/c mice; Mus musculus, once per day, 4-day study, glucose 2 g/kg i.p., AUC t=0 to 60 min, read-out: ED50 based on AUCs for glucose lowering): 0.21 mg/kg
- glucose levels at the 3 minute time point (Male Balb/c mice; Example 1 0.1, 0.3, 1.0, 3.0 or 10 mg/kg, positive control 10 mg/kg): No concentration of the compound of Example 1 or the positive control significantly lowered glucose levels
- glucose levels at the 15 minute time point (Male Balb/c mice; Example 1 at 0.1, 0.3, 1.0 and 3.0 mg/kg): significantly lowered
- glucose levels at the 30 minute time point (Male Balb/c mice; [1]): significantly lowered
- glucose levels at the 60 minute time point (Male Balb/c mice; [1]): significantly lowered
- glucose levels at the 7 minute time point (Male Balb/c mice; Example 1 at 0.3, 1.0, 3.0 and 10 mg/kg, positive control 10 mg/kg): significantly lowered
- insulin levels (Male Balb/c mice; at the 3.0 and 10.0 mg/kg dose): significantly elevated
